Reference: a melting point compilation (Tetko et al.; mined from patent text by program, amines drawn as free bases though some values may be those of a salt)

Molecule CC(=O)Nc1ncc(-c2cccc3ccccc23)o1 has a melting point of 188 to 190 °C. Work on CCOC(=O)c1cc2c(Cl)cccc2n1[C@H](C)CNC(=O)OC(C)(C)C yielded a melting point of 115 to 119 °C. CS(=O)(=O)c1ccc(-c2c(-c3ccc(Cl)cc3)[nH]c3ccc(Cl)cc23)cc1 showed a melting point of 269 to 271 °C. Work on COc1cc(C2CCN(CCF)CC2)ccc1Nc1ncc2ccc(-c3ccccc3N(C)S(C)(=O)=O)n2n1 yielded a melting point of 90 to 97 °C. In the case of O=C(Nc1ccc(N2CCOCC2)c(C(F)(F)F)c1)c1ccc(F)c(OCc2cncc3ccccc23)c1, the melting point is reported as 175 to 180 °C. CN(CC(=O)O)C(=O)C=Cc1ccccc1 showed a melting point of 177 to 179 °C. For CC(C)=CCCC(C)=CCOc1ccc(C(=O)NCCNc2cccnc2)cc1, the melting point was 88.5 to 89.2 °C. In the case of Nc1ncc2cc(-c3c(Cl)cccc3Cl)c(=O)n(Cc3cccc(Br)c3)c2n1, the melting point is reported as 215 °C. For CS(=O)(=O)Nc1cc2c(c(C(=O)O)c1)NCCCC2, the melting point was 204 to 205 °C. With Fc1ccc(C(C(Br)c2ccccc2)C(F)(F)F)cc1 (stereo unspecified) the melting point was 144 to 146 °C. Molecule O=C1N(c2ccccc2)CCN1C1CCNCC1 has a melting point of 123 to 124 °C. O=CN1CCN(S(=O)(=O)CCCOc2ccc3c(c2)CC2NC(=O)NC2=N3)CC1 (stereo unspecified) gave a melting point of 285 to 288 °C. Work on S=C1Nc2ccccc2N2CCN(c3ccccc3)CCN12 yielded a melting point of 202 to 206 °C. For N=C(c1ccccc1)c1cc(Cl)ccc1O, the melting point was 129 to 131 °C. CCOC(=O)c1cn(Cc2ccccc2)nc1OCc1ccccc1 showed a melting point of 71 to 72 °C. Molecule Cn1nc(-c2cccc(C(F)(F)F)c2)c(Br)c1C(=O)O has a melting point of 182 to 184 °C. Molecule CCOC(=O)c1ncn(-c2nncs2)c1S has a melting point of 182 to 185 °C. O=C(O)Cc1ccc(NC(=O)C(COc2cccnc2)NS(=O)(=O)c2ccc(Br)cc2)cc1 (racemic) gave a melting point of 205 to 207 °C. COCC(=O)NCCC1CCCc2ccc(OC)cc21 (single isomer, unassigned; (-)) showed a melting point of 58 to 60 °C. In the case of COc1ccc2[nH]c3c([N+](=O)[O-])ccc(Cl)c3c(=O)c2c1Cl, the melting point is reported as 251 to 253 °C. With O=c1[nH]cc(C(c2ccccc2)c2ccccc2)cc1C(c1ccccc1)c1ccccc1 the melting point was 240 °C. In the case of Cc1ccc(-c2ccc3c(c2)C=C(C(=O)Nc2ccc(CN(C)C4CCOCC4)cc2)CO3)cc1, the melting point is reported as 143 to 145 °C. Molecule CC(=O)Nc1nc2c(Oc3cc(-c4ccc(C(F)(F)F)cc4NC(=O)CC4CCCCC4)ncn3)cccc2s1 has a melting point of 288 to 289 °C. For CCNC(=O)n1nc(Oc2ccc(C#N)cc2C(F)(F)F)cc1C, the melting point was 103 to 105 °C. COC(=O)COc1cccc(CCN(C)CCCC(C#N)(c2ccc(OC)c(OC)c2)C(C)C)c1 (stereo unspecified) gave a melting point of 96 to 100 °C. Molecule Cc1nc(C#Cc2cncc(CO)c2)cs1 has a melting point of 98 to 99 °C. Molecule O=C(O)CCCCCc1c[nH]c2ccccc12 has a melting point of 124 to 126 °C. CCn1ccc(-c2cccc(-c3ccnc4c(C(=O)c5cccs5)cnn34)c2)n1 gave a melting point of 61 °C. In the case of Cc1cc(Cl)c2c(C#N)cn(-c3ccc(C(C)C)cc3Br)c2n1, the melting point is reported as 123 °C. CCc1cc(C)cc(CC)c1C(C(=O)NC)C(=O)NC gave a melting point of 98 to 100 °C. For COc1cc(N)cc(N)c1, the melting point was 79 to 80 °C. For O=C(O)C1CC1c1cc(=O)c2cc(-c3ccccc3)ccc2o1 (stereo unspecified), the melting point was 226 to 228 °C. With C#CCN1C(=O)COc2cc(-c3nn(C)c(C(F)(F)F)c3Cl)c(F)cc21 the melting point was 184 °C. With Cc1cccc(C)c1N(CC(C)Cl)C(=O)c1ccccc1 (stereo unspecified) the melting point was 106 to 109 °C. With O=C1CC2CCc3ccc(Cl)cc3C2=NN1c1ccccc1 (stereo unspecified) the melting point was 120 to 122 °C. O=C(O)CS(=O)c1ccc2c(-c3ccccc3F)noc2c1 (stereo unspecified) gave a melting point of 165 to 166 °C. Molecule O=C1c2ccccc2C(=O)N1Cc1noc(-c2ncn3c2[C@@H]2CCCN2C(=O)c2sccc2-3)n1 has a melting point of 248 to 250 °C. Molecule Cc1cc(NC(=O)c2ccc(F)cc2)c(C)cc1N has a melting point of 174 to 176 °C. COc1cc(OC)nc(NC(=O)NS(=O)(=O)Nc2nc(OC)cc(OC)n2)n1 gave a melting point of 210 °C. CNc1nc(-c2cccc(NC(=O)c3ccccc3)c2)c2cc(OCc3ccccc3)c(OC)cc2n1 gave a melting point of 204 to 206 °C. In the case of O=c1c2c(nc3c(O)cccn13)CCC2, the melting point is reported as 136 to 142 °C. O=C(CCCl)NC(=O)Nc1cc(C(F)(F)F)cc(C(F)(F)F)c1 gave a melting point of 175 °C. For CCC(=O)NC(=O)c1cc([N+](=O)[O-])cnc1C, the melting point was 171 to 173 °C. Work on Cn1cnc(COc2nn3c(-c4ccccc4F)nnc3cc2C2(C)CCOCC2)n1 yielded a melting point of 154 °C. For CNc1cnc(N2CCOCC2)cc1-c1ccccc1C, the melting point was 73.5 to 76 °C. CC(CC#N)n1nnc2cc3c(=O)n(C4CC4)nnc3cc2c1=O (stereo unspecified) showed a melting point of 240 to 242 °C. With CCCCCC(CC(=O)Nc1cc(CO)ccc1C(C)(C)C)c1ccccc1C(F)(F)F (stereo unspecified) the melting point was 147 to 148 °C. Molecule COc1ccc(C(=O)Nc2ccccc2)cc1Nc1cccc(C)c1 has a melting point of 160 to 161 °C. In the case of CCOC(=O)Cc1cnc(N)s1, the melting point is reported as 101 °C. For O=C(CCCCCCCBr)OC(C(=O)c1ccccc1)c1ccccc1 (stereo unspecified), the melting point was 60 to 61 °C. COc1ccc(F)cc1C(C)(C)CC(O)(Cn1ccc(=O)c2ccccc21)C(F)(F)F (stereo unspecified) gave a melting point of 170 to 172 °C. Molecule CC(=O)Nc1nc(CCc2ccc(CCl)cc2)cs1 has a melting point of 145 to 146 °C. COC(=O)Cc1ccc(OCCNC(=O)C2Cc3ccccc3N2S(=O)(=O)c2ccc(-c3ccc(F)cc3Cl)cc2)cc1 (stereo unspecified) showed a melting point of 68 °C. Molecule N#CC(C=N)CC(=O)c1ccc2ccccc2c1 (stereo unspecified) has a melting point of 154 to 157 °C. For CCn1ncc2c(O)c3c(nc21)CCc1ccccc1C3=O, the melting point was 154 to 155 °C. In the case of CCCC(=O)c1cnc2c(OC)cccc2c1Nc1ccc(O)cc1, the melting point is reported as 270 to 272 °C. Work on COc1cccn2c(=O)c3c(nc12)C(=Cc1ccccc1)CC3 yielded a melting point of 212 to 214 °C. Work on Cn1ncc2cc3ncc(-c4ccc(Cl)s4)nc3cc21 yielded a melting point of 225 to 227 °C. Work on CC1CCN(c2scc(C(C)(C)C)c2C#N)C1=O (stereo unspecified) yielded a melting point of 92 to 94 °C. COc1ccc2c(=O)c(OS(C)(=O)=O)cn(C)c2c1 gave a melting point of 163 °C. Cc1ccc(S(=O)(=O)ON=C(c2cccc([N+](=O)[O-])c2)n2nc(C)cc2N)cc1 gave a melting point of 156 to 158 °C. In the case of O=S1NC(Cc2coc3ccccc23)=NO1 (stereo unspecified), the melting point is reported as 138 to 140 °C. N#CC(C(=O)Nc1ccccc1)C(=O)c1nn(-c2ccccc2)c2c1CSc1ccc(N=CN3CCOCC3)cc1-2 (stereo unspecified) gave a melting point of 205 to 210 °C. Work on CCC(O)(CC)c1cccc2[nH]c(=O)n(C)c12 yielded a melting point of 199 to 201 °C. CC(O)Cc1cnn(-c2c(Cl)cc(C(F)(F)F)cc2Cl)n1 (stereo unspecified) gave a melting point of 68 to 69 °C. For Cc1ccc(C(=O)Nc2nc3ccccc3c(=O)n2C)cc1, the melting point was 189 to 191 °C. CN(C)Cc1nc(C#N)nn1-c1ccc(Cl)cc1C(=O)c1ccccc1Cl showed a melting point of 117 to 119 °C. CCCCCCS(=O)(=O)c1nn2c(=O)cc(C)nc2s1 showed a melting point of 111 to 115 °C. CS(=O)(=O)c1ccc(-c2cnn(-c3ccc(Cl)cc3)c(=O)c2-c2ccc(F)cc2)cc1 showed a melting point of 214 to 216 °C. CN(c1cccc2cc(-c3ncc(CCC(=O)NS(C)(=O)=O)s3)[nH]c12)S(=O)(=O)c1cccs1 gave a melting point of 217 to 218 °C. With Cc1c(NC(=O)c2ccc(-c3ccc(F)cc3F)cc2)ccc2cc(CN3CCCC3)cnc12 the melting point was 177 to 179 °C.
